# Data: article PMC3815523 (ACS chemical biology, 2013)
# Columns and labels:
# [1] = system: TBK1 in Raw264.7 cells; experiment: TBK1 phospho-Ser 172 immunoblot in Raw264.7 cells; type: cell-based, mouse
# [2] = system: full-length mSTING in 293T cells; experiment: Response of 293T cells overexpressing full-length mSTING; type: cell-based, mouse; details: 293T cells overexpressing mSTING; c-di-GMP 2 μg/ml transfected, DMXAA 500 μM
# [3] = target: hSTING CTD (amino acid residues 139-379) (Homo sapiens, UniProt Q86WV6); experiment: Isothermal titration calorimetry, hSTING-CTD; type: binding
# Chain of hSTING CTD (amino acid residues 139-379) (Q86WV6 140-379): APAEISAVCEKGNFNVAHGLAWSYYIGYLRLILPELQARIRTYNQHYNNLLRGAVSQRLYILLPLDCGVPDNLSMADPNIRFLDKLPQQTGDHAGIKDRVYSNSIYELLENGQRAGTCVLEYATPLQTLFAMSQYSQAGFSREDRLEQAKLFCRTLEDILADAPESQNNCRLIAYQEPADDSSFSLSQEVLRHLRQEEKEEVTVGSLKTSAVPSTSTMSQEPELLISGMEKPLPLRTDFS
# [4] = system: Raw264.7 cells; experiment: IFN-β secretion in Raw264.7 cells; type: cell-based; details: Raw264.7 mouse macrophage cell line
# [5] = system: IRF3; experiment: IRF3-driven luciferase reporter cell line; type: cell-based, mouse
# [6] = target: T1, mSTING CTD (Mus musculus, UniProt Q3TBT3); experiment: Fluorescence polarization competition assay with fluorescein-labeled c-di-GMP; type: binding; details: FP
# T1 sequence (Q3TBT3 139-378): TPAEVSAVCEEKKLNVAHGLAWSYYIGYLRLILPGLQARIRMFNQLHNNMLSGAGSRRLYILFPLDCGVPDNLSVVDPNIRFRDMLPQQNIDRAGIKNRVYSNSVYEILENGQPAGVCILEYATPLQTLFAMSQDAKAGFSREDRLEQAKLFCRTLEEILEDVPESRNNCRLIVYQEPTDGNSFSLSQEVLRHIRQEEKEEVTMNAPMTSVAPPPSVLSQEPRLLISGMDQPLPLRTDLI
# [7] = target: T2, mSTING CTD (amino acids 139-378) (Mus musculus, UniProt Q3TBT3); experiment: Isothermal titration calorimetry, mSTING-CTD; type: binding; details: ITC
# T2 sequence (Q3TBT3 139-378): T1 sequence (Q3TBT3 139-378)
# [8] = system: human leukocytes; details: cited from earlier work
interaction with hSTING CTD ([3]; ITC),affinity for the CTD of hSTING lower than for mSTING ([3]; from upper bound of detection by ITC ∼100 μM),Compound,TBK1 phosphorylation (phospho-Ser 172) [1],responsiveness of cells [2],IFN-β secretion [4],IRF3 activation and nuclear translocation [5],competition with fluorescent c-di-GMP probe (apparent IC50) [6],"Kd ([3]; ITC, 25°C, hSTING CTD) [nM]","stoichiometry ([3]; ITC, hSTING CTD)",higher binding affinity of the mouse homolog vs hSTING ([7]; mSTING CTD vs hSTING CTD) [fold],"Kd ([7]; read-out: dissociation constant (Kd), 25°C, mSTING CTD) [nM]","IL-6, IL-8 and TNFα secretion [8]"
no interaction,at least 1000 fold,"Cc1ccc2c(=O)c3cccc(CC(=O)O)c3oc2c1C [DMXAA, 5,6– dimethylxanthenone-4-acetic acid]",became phosphorylated in response to DMXAA in a dose- and time-dependent manner,responsive,induces IFN-β secretion,induces IRF3 activation and nuclear translocation,–,–,–,–,–,–
–,–,"Nc1nc2c(ncn2[C@@H]2O[C@@H]3COP(=O)(O)O[C@H]4[C@@H](O)[C@H](n5cnc6c(=O)[nH]c(N)nc65)O[C@@H]4COP(=O)(O)O[C@H]3[C@H]2O)c(=O)[nH]1 [c-di-GMP, cyclic-di-GMP]",–,responsive,–,–,competed out this signal,~5200,0.59,~50,~110,–
–,–,Cc1cccc2oc3c(CC(=O)O)cccc3c(=O)c12 [XAA-8Me],–,–,–,–,–,–,–,–,–,increased
